Data published in US12410160B2 (Gilead Sciences, Inc., priority 2021, dated 2025).
Where two headings read alike, the source gives them in different places.

Assays:
human KHK-C = human KHK-C (Homo sapiens (Human), UniProt P50053); experiment: KHK Biochemical Assay (IC50), ADP-Glo, KHK-C; conditions: ADP-Glo; average of at least two separate assays
How it was run: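 Luminescent ADP-Glo read-out of ADP made by His-tagged KHK (BL21 (DE3) expression, Ni-NTA). Enzyme and compound sat together 30 min before ATP/fructose addition, then reacted 4 h at RT in Hepes pH 7.4 buffer with KCl, MgCl2, Triton-X. Quench 1 h, detection 1 h.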

HepG2 cells = experiment: F1P Cell-Based Assay (EC50), 13C6-fructose-1-phosphate in HepG2 cells (cell culture medium or 50% human plasma); conditions: Homo sapiens
human OATP1B1 [1] = biological target: T1, human OATP1B1 (Homo sapiens (Human), UniProt Q9Y6L6); experiment: In Vitro Inhibition Assessment with Human OATP1B1 Transporter; assay type: in vitro ADME; conditions: HEK293-OATP1B1 cells, probe substrate pravastatin
T1 sequence (Q9Y6L6 whole entry): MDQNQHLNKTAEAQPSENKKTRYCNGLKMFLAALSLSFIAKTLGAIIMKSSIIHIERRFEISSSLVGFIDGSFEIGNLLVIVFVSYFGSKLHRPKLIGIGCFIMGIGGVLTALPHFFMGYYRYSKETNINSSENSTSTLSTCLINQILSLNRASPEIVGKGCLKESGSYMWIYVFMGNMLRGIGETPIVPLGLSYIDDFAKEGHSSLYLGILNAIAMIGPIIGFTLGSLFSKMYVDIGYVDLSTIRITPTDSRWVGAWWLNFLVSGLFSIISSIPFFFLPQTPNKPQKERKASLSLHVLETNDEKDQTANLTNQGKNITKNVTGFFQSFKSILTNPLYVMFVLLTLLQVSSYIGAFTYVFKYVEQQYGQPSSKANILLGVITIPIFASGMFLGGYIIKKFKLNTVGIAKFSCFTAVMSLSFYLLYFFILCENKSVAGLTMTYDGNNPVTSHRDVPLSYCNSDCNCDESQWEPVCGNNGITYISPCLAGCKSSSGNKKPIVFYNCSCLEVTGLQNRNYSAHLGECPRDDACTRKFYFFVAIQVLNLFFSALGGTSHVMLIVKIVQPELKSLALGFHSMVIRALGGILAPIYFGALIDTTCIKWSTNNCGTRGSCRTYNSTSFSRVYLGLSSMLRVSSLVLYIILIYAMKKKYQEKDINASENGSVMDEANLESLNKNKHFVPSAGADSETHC
How it was run: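 HEK293-OATP1B1 and mock cells were preincubated 15 min with compound in HBSS. They were then coincubated 5 min with compound plus pravastatin (0.4% DMSO final), and intracellular substrate was quantified by LC-MS/MS. Mock-corrected uptake relative to solvent gave percentage activity, from which IC50 was fitted.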

human OATP1B1 [2] = biological target: T1, human OATP1B1; experiment: In Vitro Substrate Assessment with Human OATP1B1 Transporter; assay type: in vitro ADME; conditions: HEK293-OATP1B1 vs mock cells; substrate if uptake ≥2-fold of mock and decreased by ≥30% with known OATP inhibitor
Description: In Vitro Substrate Assessment with Human OATP1B1 and OATP1B3 Transporters
The purpose of this assay was to assess whether test articles (TAs), were substrates for the hepatic uptake transporters organic anion transporting polypeptide (OATP) 1B1 (SLCO1B1) and 1B3 (SLCO1B3) using non-transfected (Mock) and transfected human embryonic kidney (HEK293) cells. […] On assay day, media were removed from the assay plates and cells were washed with Hanks' Balanced Salt Solution (HBSS Buffer) (Corning, Cat. #21-023-CV). Cells were preincubated with HBSS buffer with or without known OATP inhibitors for 30 minutes. […] The incubation period was 2 minutes. Cells were then washed three times with ice cold HBSS buffer and then were immediately extracted with methanol:water (70:30 v:v) containing internal standard labetolol (30 nM). The supernatants were evaporated to dryness on injection plates and reconstituted in 80% water containing 20% acetonitrile and 0.1% formic acid for analysis by liquid chromatography with tandem mass spectrometry (LC-MS-MS).
The rate of uptake into cells was determined by the following formula: Rate of uptake=(A*B)/(C*D)
• A: concentration of compound in cell lysate • B: volume of sample • C: Incubation time • D: millions of cells in sample
A TA was considered a substrate for OATP transporter if: (1) the rate of uptake in the transporter transfected cells was ≥2-fold of the rate of uptake in the mock cells; and (2) the rate of uptake in the transporter transfected cells was decreased by ≥30% in the presence of a known OATP inhibitor.

[3] = biological target: KHK-C expressed in NRK-52E cells (Homo sapiens (Human), UniProt P50053); experiment: KHK-C Cell-based Assay (EC50), NRK CTG, fructose-mediated ATP-depletion
Sequence of KHK-C expressed in NRK-52E cells (P50053 whole entry): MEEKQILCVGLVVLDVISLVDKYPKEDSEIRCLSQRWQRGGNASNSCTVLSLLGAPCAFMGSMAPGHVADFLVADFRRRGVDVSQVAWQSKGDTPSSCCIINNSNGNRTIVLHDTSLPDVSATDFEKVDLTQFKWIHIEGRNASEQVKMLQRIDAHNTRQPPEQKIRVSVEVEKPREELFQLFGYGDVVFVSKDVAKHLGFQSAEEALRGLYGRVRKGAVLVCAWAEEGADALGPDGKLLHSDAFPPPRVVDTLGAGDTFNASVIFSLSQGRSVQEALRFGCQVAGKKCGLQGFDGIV

[4] = pKa analysis by capillary electrophoresis (pKa PRO Analyzer, co-solvent method); assay type: physicochemical; conditions: methanol/aqueous co-solvent buffers, co-solvent method (60% to 30% methanol buffers)
How it was run: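 Capillary electrophoresis by the co-solvent method, with 100 μM compound and 1% DMSO in 2 mM HCl or NaOH at 60% methanol.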

Sequence of human KHK-C (P50053 whole entry): as above

| Compound | IC50 (human KHK-C) [nM] | EC50 (HepG2 cells; HepG2, HepG2 cells, 50% human plasma, read-out: F1P 50% HP EC50) [nM] | EC50 (HepG2 cells; HepG2, read-out: F1P 10% FBS EC50, HepG2 cells, cell culture medium (10% FBS)) [nM] | IC50 (human OATP1B1 [1]) [nM] | OATP1B1 Substrate (human OATP1B1 [2]) | EC50 [3] [nM] | pKa ([4]; pH range 1.7-11.2, read-out: 1st pKa) | pKa ([4]; pH range 1.7-11.2, read-out: 2nd pKa) |
| --- | --- | --- | --- | --- | --- | --- | --- | --- |
| C[C@H]1[C@H](O)CN1c1nc(-c2ccc3c(c2)OCCNC3=O)c2c(n1)C(F)(F)CC2 [Example 166, 8-(7,7-difluoro-2-((2S,3R)-3-hydroxy-2-methylazetidin-1-yl)-6,7-dihydro-5H-cyclopenta[d]pyrimidin-4-yl)-3,4-dihydrobenzo[f][1,4]oxazepin-5(2H)-one] | 5 | 47.3 | 36.7 | 1740 | YES | 39.7 | – | – |
| C[C@H]1[C@H](O)CN1c1nc2c(c(-c3cccc(S(N)(=O)=O)c3)n1)CCC2 [Example 209, 3-[2-[(2S,3R)-3-hydroxy-2-methyl-azetidin-1-yl]-6,7-dihydro-5H-cyclopenta[d]pyrimidin-4-yl]benzenesulfonamide] | – | – | – | 5570 | YES | 249 | 3.54 | 9.45 |
